# Columns and labels:
# Format in all cases: in vivo
# Nightshade = test: Test C preemergence
# Sunflower = test: Test C preemergence; conditions: Rate 125 g/ha; scale 0 to 100, 0 no effect, 100 complete control
# [1] = tested on: Surinam grass (Brachiaria decumbens); test: Test C preemergence
# Method in brief: (§1)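 Herbicidal effect is a visual 0–100 score (100 = complete control) assigned versus untreated plants, 12 to 14 days after spraying in the greenhouse. Test compounds were applied in a non-phytotoxic, surfactant-containing solvent.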
# [2] = tested on: bermudagrass (Cynodon dactylon); test: Test C preemergence
# Method in brief: as §1
# [3] = tested on: cocklebur (Xanthium strumarium); test: Test C preemergence
# Method in brief: as §1
# [4] = tested on: common ragweed (Ambrosia elatior); test: Test C preemergence
# Method in brief: as §1
# corn (Zea mays) = test: Test C preemergence
# Method in brief: as §1
# [5] = tested on: crabgrass (Digitaria sanguinalis); test: Test C preemergence
# Method in brief: as §1
# [6] = tested on: giant foxtail (Setaria faberii); test: Test C preemergence
# Method in brief: as §1
# [7] = tested on: goosegrass (Eleusine indica); test: Test C preemergence
# Method in brief: as §1
# [8] = tested on: johnsongrass (Sorghum halepense); test: Test C preemergence
# Method in brief: as §1
# kochia (Kochia scoparia) = test: Test C preemergence
# Method in brief: as §1
# [9] = tested on: lambsquarters (Chenopodium album); test: Test C preemergence
# Method in brief: as §1
# [10] = tested on: morningglory (Ipomoea hederacea); test: Test C preemergence
# Method in brief: as §1
# [11] = tested on: pigweed (Amaranthus retroflexus); test: Test C preemergence
# Method in brief: as §1
# soybean (Glycine max) = test: Test C preemergence
# Method in brief: as §1
# [12] = tested on: velvetleaf (Abutilon theophrasti); test: Test C preemergence
# Method in brief: as §1
# [13] = tested on: woolly cupgrass (Eriochloa villosa); test: Test C preemergence
# Method in brief: as §1
# [14] = tested on: yellow nutsedge (Cyperus esculentus); test: Test C preemergence
# Method in brief: as §1
# [15] = tested on: barnyardgrass (Echinochloa crus-galli); test: Test C flooded paddy test; conditions: for Barnyardgrass plant response rating: Flooded Paddy, scale 0 to 100, 0 no effect, 100 complete control; for Plant response rating, Barnyardgrass: flooded paddy test, scale 0 to 100 (0 no effect, 100 complete control)
# Method in brief: (§2)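 Rice and three paddy weeds were grown to the 2-leaf stage under flooded conditions, then treated and kept in a greenhouse for 12–14 days. Response was rated visually against untreated controls on a 0–100 scale, where 100 is complete control.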
# [16] = tested on: duck salad (Heteranthera limosa); test: Test C flooded paddy test; conditions: for Ducksalad plant response rating: Flooded Paddy, scale 0 to 100, 0 no effect, 100 complete control; for Plant response rating, Ducksalad: flooded paddy test, scale 0 to 100 (0 no effect, 100 complete control)
# Method in brief: as §2
# [17] = tested on: smallflower flatsedge (Cyperus difformis); test: Test C flooded paddy test; conditions: for Flatsedge plant response rating: Flooded Paddy, scale 0 to 100, 0 no effect, 100 complete control; for Plant response rating, Flatsedge: flooded paddy test, scale 0 to 100 (0 no effect, 100 complete control)
# Method in brief: as §2
# [18] = Rate 125 g/ha, scale 0 to 100, 0 no effect, 100 complete control
# [19] = preemergence, Rate 62 g/ha, scale 0 to 100
# [20] = preemergence, Rate 500 g/ha, visual evaluation after 12 to 14 days
# [21] = preemergence, Rate 250 g/ha, scale 0 to 100, 0 no effect, 100 complete control
smiles,measurement,setting,value
Cc1ccc(N2CCC(n3ccc(C(C)(C)C)n3)C2=O)cc1I (centres unmarked) [Compound 122],"Plant response rating, Nightshade","Nightshade; Rate 62 g/ha, scale 0 to 100",0
same,"Plant response rating, Nightshade",Nightshade; [18],0
same,"Plant response rating, Nightshade","Nightshade; Rate 250 g/ha, scale 0 to 100, 0 no effect, 100 complete control",30
same,"Plant response rating, Sunflower",Sunflower,0
same,"Plant response rating, Surinam grass",[1]; [18],0
same,"Plant response rating, Surinam grass",[1]; [19],0
same,"Plant response rating (0 to 100), Surinam grass",[1]; [20],60
same,"Plant response rating, Surinam grass",[1]; [21],20
same,"Plant response rating, Bermudagrass",[2]; [18],100
same,"Plant response rating, Bermudagrass",[2]; [19],100
same,"Plant response rating (0 to 100 where 0 is no effect and 100 is complete control), Bermudagrass",[2]; [20],100
same,"Plant response rating, Bermudagrass",[2]; [21],100
same,"Plant response rating, Cocklebur",[3]; [18],0
same,"Plant response rating, Cocklebur",[3]; [19],0
same,"Plant response rating (0 to 100), Cocklebur",[3]; [20],0
same,"Plant response rating, Cocklebur",[3]; [21],0
same,"Plant response rating, Ragweed, Common",[4]; [18],0
same,"Plant response rating, Ragweed, Common",[4]; [19],0
same,"Plant response rating (0 to 100), Ragweed, Common",[4]; [20],100
same,"Plant response rating, Ragweed, Common",[4]; [21],20
same,"Plant response rating, Corn",corn (Zea mays); [18],0
same,"Plant response rating, Corn",corn (Zea mays); [19],0
same,"Plant response rating (0 to 100), Corn",corn (Zea mays); [20],0
same,"Plant response rating, Corn",corn (Zea mays); [21],0
same,"Plant response rating, Crabgrass",[5]; [18],100
same,"Plant response rating, Crabgrass",[5]; [19],90
same,"Plant response rating (0 to 100), Crabgrass",[5]; [20],100
same,"Plant response rating, Crabgrass",[5]; [21],100
same,"Plant response rating, Foxtail, Giant",[6]; [18],0
same,"Plant response rating, Foxtail, Giant",[6]; [19],0
same,"Plant response rating (0 to 100), Foxtail, Giant",[6]; [20],0
same,"Plant response rating, Foxtail, Giant",[6]; [21],0
same,"Plant response rating, Goosegrass",[7]; [18],100
same,"Plant response rating, Goosegrass",[7]; [19],90
same,"Plant response rating (0 to 100), Goosegrass",[7]; [20],100
same,"Plant response rating, Goosegrass",[7]; [21],100
same,"Plant response rating, Johnsongrass",[8]; [18],0
same,"Plant response rating, Johnsongrass",[8]; [19],0
same,"Plant response rating (0 to 100), Johnsongrass",[8]; [20],20
same,"Plant response rating, Johnsongrass",[8]; [21],0
same,"Plant response rating, Kochia",kochia (Kochia scoparia); [18],100
same,"Plant response rating, Kochia",kochia (Kochia scoparia); [19],100
same,"Plant response rating (0 to 100), Kochia",kochia (Kochia scoparia); [20],100
same,"Plant response rating, Kochia",kochia (Kochia scoparia); [21],100
same,"Plant response rating, Lambsquarters",[9]; [18],100
same,"Plant response rating, Lambsquarters",[9]; [19],100
same,"Plant response rating (0 to 100), Lambsquarters",[9]; [20],100
same,"Plant response rating, Lambsquarters",[9]; [21],100
same,"Plant response rating, Morningglory",[10]; [18],0
same,"Plant response rating, Morningglory",[10]; [19],0
same,"Plant response rating, Morningglory",[10]; [21],100
same,"Plant response rating, Pigweed",[11]; [18],20
same,"Plant response rating, Pigweed",[11]; [19],0
same,"Plant response rating (0 to 100), Pigweed",[11]; [20],100
same,"Plant response rating, Pigweed",[11]; [21],20
same,"Plant response rating, Soybean",soybean (Glycine max); [18],0
same,"Plant response rating, Soybean",soybean (Glycine max); [19],0
same,"Plant response rating (0 to 100), Soybean",soybean (Glycine max); [20],0
same,"Plant response rating, Soybean",soybean (Glycine max); [21],0
same,"Plant response rating, Velvetleaf",[12]; [18],10
same,"Plant response rating, Velvetleaf",[12]; [19],0
same,"Plant response rating (0 to 100), Velvetleaf",[12]; [20],20
same,"Plant response rating, Velvetleaf",[12]; [21],20
same,"Plant response rating, Cupgrass, Woolly",[13]; [18],20
same,"Plant response rating, Cupgrass, Woolly",[13]; [19],0
same,"Plant response rating (0 to 100), Cupgrass, Woolly",[13]; [20],100
same,"Plant response rating, Cupgrass, Woolly",[13]; [21],100
same,"Plant response rating, Nutsedge",[14]; [18],0
same,"Plant response rating, Nutsedge",[14]; [19],0
same,"Plant response rating (0 to 100), Nutsedge",[14]; [20],0
same,"Plant response rating, Nutsedge",[14]; [21],0
same,Barnyardgrass plant response rating,[15]; Rate 250 g/ha,0
same,Barnyardgrass plant response rating,[15]; Rate 500 g/ha,100
same,"Plant response rating, Barnyardgrass",[15]; Rate 62 g/ha,0
same,"Plant response rating, Barnyardgrass",[15]; Rate 125 g/ha,0
same,Ducksalad plant response rating,[16]; Rate 250 g/ha,30
same,Ducksalad plant response rating,[16]; Rate 500 g/ha,60
same,"Plant response rating, Ducksalad",[16]; Rate 62 g/ha,20
same,"Plant response rating, Ducksalad",[16]; Rate 125 g/ha,20
same,Flatsedge plant response rating,[17]; Rate 250 g/ha,80
same,Flatsedge plant response rating,[17]; Rate 500 g/ha,100
same,"Plant response rating, Flatsedge",[17]; Rate 62 g/ha,0
same,"Plant response rating, Flatsedge",[17]; Rate 125 g/ha,80

# Reference: patent publication US7138361B2, “Herbicidal heterocycles” (E. I. du Pont de Nemours and Company, priority 2000, dated 2006)
